Five molecules from US20260207645A1, “USE OF INTEGRIN A5B1 AS TARGET IN SCREENING OF DRUGS FOR PREVENTING AND/OR TREATING BONE LOSS” (The Hong Kong Polytechnic University, priority 2023, published 2026) can be followed below.

One experiment deals with T1, integrin α5β1 (Homo sapiens, UniProt P05556+P08648).
T1 construct: Soluble integrin α5β1 (1.0 μg/ml) (R&D Systems, MN, USA); purchased R&D Systems
Description: competitive solid-phase binding ELISA (soluble integrin α5β1 vs coated fibronectin). The note with it: fibronectin-coated plate, soluble integrin α5β1 1.0 μg/ml; read-out: IC50 for competing with fibronectin bound on integrin α5β1.

For a further experiment, the system named is BMSCs. Description: F-actin cytoskeleton (phalloidin staining, confocal) in BMSCs under microgravity. The experiment is classed as cell-based. The note with it: microgravity 3 days. The procedure:
Testing procedure: BMSCs were cultured in osteogenic medium. […] The representative images were captured at mid-plane of the cells and visualized using a confocal laser scanning microscope (magnification: 400×, scale bar: 25 μm). Hoechst counter-staining (blue; DAPI) was applied for determination of single cells.

The next experiment has as its system differentiated BMSCs. Description: quantitative analysis of differentiation activity (ALP, RhoA, Rac1) of BMSCs under normal gravity and microgravity. The class given is cell-based. The settings on record: microgravity. The procedure:
Testing procedure: BMSCs were cultured in osteogenic medium. […] The representative images were captured at mid-plane of the cells and visualized using a confocal laser scanning microscope (magnification: 400×, scale bar: 25 μm). Hoechst counter-staining (blue; DAPI) was applied for determination of single cells. […] The quantitative analysis of the differentiation activity of BMSCs under normal gravity and microgravity is shown in FIG. 6, where FIG. 6a is the ALP activity analysis relative to the positive control group, FIG. 6b is the RhoA activity analysis in total protein, and FIG. 6c is the Rac1 activity analysis in total protein. The data in FIGS. 6a, 6b, and 6c are presented as mean values±SEM. Statistical analysis was performed using one-way […]<0.001; versus control: *p<0.05, ###p<0.001 (n=3).

The mark [1] stands for this setting: growth factor, concentration not given.

By IC50 is commonly meant the point on the concentration scale where inhibition reaches its midpoint. As for `CC(C)=CCc1c(O)cc(O)c2c(=O)c(-c3ccc(O)cc3)coc12` [8-prenylgenistein], at integrin α5β1, the IC50 came to 390 ± 280 nM.
With `CC(C)=CCc1c(O)cc(O)c2c1O[C@H](c1ccc(O)cc1)CC2=O` [8-prenylnaringenin], the IC50 at integrin α5β1 came out at 7.6 ± 3.92 nM.
Consider `C[C@]12CC[C@@H]3c4ccc(O)cc4CC[C@H]3[C@@H]1CC[C@@H]2O` [E2, reference compound], for which the F-actin polymerization result with BMSCs (setting [1]) is “not”.
For `COc1ccc(-c2oc3c(CC=C(C)C)c(O[C@@H]4O[C@H](CO)[C@@H](O)[C@H](O)[C@H]4O)cc(O)c3c(=O)c2O[C@@H]2O[C@@H](C)[C@H](O)[C@@H](O)[C@H]2O)cc1` [icariin], the F-actin polymerization entry in the experiment with BMSCs (10 nM) is reported as “stimulated F-actin polymerization”. In addition, the F-actin polymerization result in the experiment with BMSCs (0.1 μM) is given as “stimulated F-actin polymerization”. For the same molecule, in the experiment with differentiated BMSCs (differentiated BMSCs), the ALP activity entry is recorded as “significantly increase”, the Rac1 activity entry is reported as “significantly increase” and the RhoA activity entry was “significantly increase”. Besides, in the experiment with differentiated BMSCs (10 nM), the “differentiation of BMSCs” value is “restore the differentiation”. For the same molecule, the “differentiation of BMSCs” value in the experiment with differentiated BMSCs (100 nM) is “restore the differentiation”.
IGF-1: growth factor, positive control: the F-actin polymerization result with BMSCs (setting [1]) is recorded as “stimulated F-actin polymerization”.
